In patent publication US20260293896A1, “PLANT GROWTH REGULATOR, PLANT GROWTH ACCELERATION METHOD, OR PLANT GROWTH-REGULATING PRODUCT” (KUREHA CORPORATION, priority 2022, published 2026):

Key:
Assay type in all cases: in vivo
[1] = tested on: Arabidopsis thaliana (Col-0); assay: Evaluation Example 2: Comparison of Seed Yield of Arabidopsis thaliana; conditions: 50 mL added on 8th, 10th, 12th, 14th days after seeding; harvest 89th day; EGT 1 mM and/or component (A) 0.1 mM
Procedure: The plant growth regulators of Examples 3 to 5 and Comparative Examples 4 to 7 were prepared so as to attain the concentrations indicated in Table 2 below. EGT, citric acid, GB and GSSG were commercially available products, and pure water was used as a solvent.
One individual Arabidopsis thaliana (Col-0) was sown in a plastic pot having a diameter of 60 mm and a height of 55 mm. Plastic deep dishes each having a diameter of 160 mm and a height of 28 mm were prepared, and six pots were respectively placed therein. As soil, 45 mL of vermiculite, 22.5 mL of granular soil (Kumiai horticultural soil), and 22.5 mL of vermiculite were placed in the pot in this order.
In a growth chamber set at room temperature of 22° C., the light period was 16 hours and the dark period was 8 hours. The light conditions were set such that the light intensity was 5000 lx in the central part under irradiation with the fluorescent lamp. Water supply was conducted from the bottom, and the water level was set at about 5 mm. Chemical treatment was started […]. More specifically, on the 8th, 10th, 12th, and 14th days after seeding, 50 mL of the plant growth regulator was added instead of water supply.
On the 89th day after seeding, seeds were harvested, and the seed yield was evaluated.

rapeseed [2] = assay: Evaluation Example 4: Comparison of Elongated Plant Height of Rapeseed; conditions: petri dish, 5 mL, 24° C, 7th day after seeding, EGT 1 mM and/or component (A) 1 mM
Procedure: The plant growth regulators of Examples 7 and 8 and Comparative Examples 10 to 12 were prepared so as to attain the concentrations indicated in Table 4 below. EGT, Asn and Lys were commercially available products, and pure water was used as a solvent.
(§1) Into a 9 cm petri dish on which filter paper was spread, 5 mL of the plant growth regulator was added. Ten seeds of rapeseed were sown per one petri dish. In a thermostatic chamber set at room temperature of 24° C., the light period was 16 hours and the dark period was 8 hours. The light conditions were set using a fluorescent lamp (PLANT FLEC, 40 W LED fluorescent lamp for plant growth, electric bulb color, available from Nippon Medical and Chemical Instruments Co., Ltd.) such that the light intensity was 5000 lx in the central part under irradiation with the fluorescent lamp.
(§2) The plant height of the rapeseed on the 7th day after seeding was evaluated.

rapeseed [3] = assay: Evaluation Example 5: Comparison of Elongated Plant Height of Rapeseed; conditions: petri dish, 5 mL, 25° C, 7th day after seeding, EGT 0.5 mM and/or component (A) 0.5 mM
Procedure: The plant growth regulators of Examples 9 to 13 and Comparative Examples 13 to 18 were prepared so as to attain the concentrations indicated in Table 5 below. EGT, Gln, Trp, Met, Phe and acetic acid were commercially available products, and pure water was used as a solvent.
(§3) Into a 9 cm petri dish on which filter paper was spread, 5 mL of the plant growth regulator was added. Ten seeds of rapeseed were sown per one petri dish. In a growth chamber set at room temperature of 25° C., the light period was 16 hours and the dark period was 8 hours. The light conditions were set such that the light intensity was 5000 lx in the central part under irradiation with the fluorescent lamp.
as §2

rapeseed [4] = assay: Evaluation Example 6: Comparison of Elongated Plant Height of Rapeseed; conditions: petri dish, 5 mL, 25° C, 7th day after seeding, EGT 0.5 mM and/or component (A) 0.5 mM
Procedure: The plant growth regulators of Examples 14 to 17 and Comparative Examples 19 to 23 were prepared so as to attain the concentrations indicated in Table 6 below. EGT, Leu, Val, Tyr and Ser were commercially available products, and pure water was used as a solvent.
as §3, §2

wheat [5] = assay: Evaluation Example 10: Comparison of Elongated Plant Height of Wheat; conditions: petri dish, 5 mL, 24° C, 7th day after seeding, EGT 0.5 mM and/or component (A) 0.5 mM
Procedure: The plant growth regulators of Examples 23 to 26 and Comparative Examples 32 to 36 were prepared so as to attain the concentrations indicated in Table 10 below. EGT, GABA, ornithine, carnitine and maleic acid were commercially available products, and pure water was used as a solvent.
as §1, with “wheat” for “rapeseed”
(§4) The plant height of the wheat on the 7th day after seeding was evaluated.

wheat [6] = assay: Evaluation Example 11: Comparison of Elongated Plant Height of Wheat; conditions: petri dish, 5 mL, 24° C, 7th day after seeding, EGT 0.5 mM and/or component (A) 0.1 mM (vitamin D2 0.01 mM)
Procedure: The plant growth regulators of Examples 27 to 31 and Comparative Examples 37 to 42 were prepared so as to attain the concentrations indicated in Table 11 below. EGT, Met, His, Cys, 5-ALA and vitamin D2 were commercially available products, and pure water was used as a solvent.
as §1, with “wheat” for “rapeseed”
as §4

radish (Akamaru Hatsuka) = assay: Evaluation Example 13: Comparison of Aboveground Part Weight and Underground Part Weight of Radish; conditions: 50 mL on 15th, 17th, 20th days, evaluated 27th day after seeding, EGT 0.5 mM and/or Glu 0.5 mM
Procedure: The plant growth regulators of Example 34 and Comparative Examples 46 and 47 were prepared so as to attain the concentrations indicated in Table 13 below. EGT and Glu were commercially available products, and pure water was used as a solvent.
In a plastic pot having a diameter of 105 mm and a height of 90 mm, 450 g of granular soil (Kumiai horticultural soil) was placed, and one individual radish (Akamaru Hatsuka) was sown per one pot.
The radish was managed in a greenhouse set at room temperature of 25° C. Chemical treatment was started 2 weeks after seeding. More specifically, on the 15th, 17th, and 20th days after seeding, 50 mL of the plant growth regulator was added.
On the 27th day after seeding, the aboveground part weight and underground part weight were evaluated.

tomato (Regina) = assay: Evaluation Example 14: Comparison of Number of Fruits and Total Fruit Weight of Tomato; conditions: 50 mL on 32nd, 34th, 36th days, fruits ≥20 mm collected 75th day after seeding, EGT 0.1 mM and/or Arg 0.1 mM
Procedure: The plant growth regulators of Example 35 and Comparative Examples 48 and 49 were prepared so as to attain the concentrations indicated in Table 14 below. EGT and Arg were commercially available products, and pure water was used as a solvent.
In a plastic pot having a diameter of 135 mm and a height of 110 mm, 1 kg of granular soil (Kumiai horticultural soil) was placed, and one individual tomato (Regina) was sown per one pot.
The tomato was managed in a greenhouse set at room temperature of 25° C. Chemical treatment was started 5 weeks after seeding. More specifically, on the 32nd, 34th, and 36th days after seeding, 50 mL of the plant growth regulator was added.
On the 75th day after seeding, fruits having a diameter of 20 mm or greater were collected, and the number and total weight of the collected fruits were evaluated.

wheat [7] = assay: Evaluation Example 17: Comparison of Elongated Plant Height of Wheat; conditions: petri dish, 5 mL, 24° C, 7th day after seeding, EGT 1 mM and/or uracil 0.01, 0.1 or 10 mM
Procedure: The plant growth regulators of Examples 39 to 41 and Comparative Examples 55 to 58 were prepared so as to attain the concentrations indicated in Table 17 below. EGT and uracil were commercially available products, and pure water was used as a solvent.
as §1, with “wheat” for “rapeseed”
as §4

## C[N+](C)(C)[C@@H](Cc1c[nH]c(=S)[nH]1)C(=O)[O-] [Comparative Example 4, L-(+)-ergothioneine]
[1]
  Seed yield, ratio to untreated control: 1.2

## O=C(O)CC(O)(CC(=O)O)C(=O)O [Comparative Example 5, citric acid]
[1]
  Seed yield, ratio to untreated control: 0.8

## C[N+](C)(C)[C@@H](Cc1c[nH]c(=S)[nH]1)C(=O)[O-] [Comparative Example 10, L-(+)-ergothioneine]
Rapeseed [2]
  Elongated plant height, ratio to untreated control: 1.1

## C[N+](C)(C)[C@@H](Cc1c[nH]c(=S)[nH]1)C(=O)[O-] [Comparative Example 13, L-(+)-ergothioneine]
Rapeseed [3]
  Elongated plant height, ratio to untreated control: 1.1

## C[N+](C)(C)[C@@H](Cc1c[nH]c(=S)[nH]1)C(=O)[O-] [Comparative Example 19, L-(+)-ergothioneine]
Rapeseed [4]
  Elongated plant height, ratio to untreated control: 1.1

## C[N+](C)(C)[C@@H](Cc1c[nH]c(=S)[nH]1)C(=O)[O-] [Comparative Example 32, L-(+)-ergothioneine]
Wheat [5]
  Elongated plant height, ratio to untreated control: 1.1

## C[N+](C)(C)[C@@H](Cc1c[nH]c(=S)[nH]1)C(=O)[O-] [Comparative Example 37, L-(+)-ergothioneine]
Wheat [6]
  Elongated plant height, ratio to untreated control: 1.1

## C[N+](C)(C)[C@@H](Cc1c[nH]c(=S)[nH]1)C(=O)[O-] [Comparative Example 46, L-(+)-ergothioneine]
Radish (Akamaru Hatsuka)
  Aboveground part weight, ratio to untreated control: 1.1
  Underground part weight, ratio to untreated control: 1.1

## N[C@@H](CCC(=O)O)C(=O)O [Comparative Example 47, L-glutamic acid]
Radish (Akamaru Hatsuka)
  Aboveground part weight, ratio to untreated control: 1.1
  Underground part weight, ratio to untreated control: 1.1

## C[N+](C)(C)[C@@H](Cc1c[nH]c(=S)[nH]1)C(=O)[O-] [Comparative Example 48, L-(+)-ergothioneine]
Tomato (Regina)
  Number of fruits, ratio to untreated control: 1.2
  Total fruit weight, ratio to untreated control: 1.2

## N=C(N)NCCC[C@H](N)C(=O)O [Comparative Example 49, L-arginine]
Tomato (Regina)
  Number of fruits, ratio to untreated control: 1.0
  Total fruit weight, ratio to untreated control: 0.9

## C[N+](C)(C)[C@@H](Cc1c[nH]c(=S)[nH]1)C(=O)[O-] [Comparative Example 55, L-(+)-ergothioneine]
Wheat [7]
  Elongated plant height, ratio to untreated control: 1.1

## C[N+](C)(C)CC(=O)[O-] [compound 6, glycine betaine]
[1]
  Seed yield, ratio to untreated control: 1.0

## NC(=O)C[C@H](N)C(=O)O [compound 11, L-asparagine]
Rapeseed [2]
  Elongated plant height, ratio to untreated control: 1.1

## NCCCC[C@H](N)C(=O)O [compound 12, L-lysine]
Rapeseed [2]
  Elongated plant height, ratio to untreated control: 0.6

## NC(=O)CC[C@H](N)C(=O)O [compound 14, L-glutamine]
Rapeseed [3]
  Elongated plant height, ratio to untreated control: 1.1

## N[C@@H](Cc1c[nH]c2ccccc12)C(=O)O [compound 15, L-tryptophan]
Rapeseed [3]
  Elongated plant height, ratio to untreated control: 0.5

## CSCC[C@H](N)C(=O)O [compound 16, L-methionine]
Rapeseed [3]
  Elongated plant height, ratio to untreated control: 1.0

## N[C@@H](Cc1ccccc1)C(=O)O [compound 17, L-phenylalanine]
Rapeseed [3]
  Elongated plant height, ratio to untreated control: 1.1

## CC(=O)O [compound 18, acetic acid]
Rapeseed [3]
  Elongated plant height, ratio to untreated control: 1.1

## CC(C)C[C@H](N)C(=O)O [compound 20, L-leucine]
Rapeseed [4]
  Elongated plant height, ratio to untreated control: 1.0

## CC(C)[C@H](N)C(=O)O [compound 21, L-valine]
Rapeseed [4]
  Elongated plant height, ratio to untreated control: 1.0

## N[C@@H](Cc1ccc(O)cc1)C(=O)O [compound 22, L-tyrosine]
Rapeseed [4]
  Elongated plant height, ratio to untreated control: 1.0

## N[C@@H](CO)C(=O)O [compound 23, L-serine]
Rapeseed [4]
  Elongated plant height, ratio to untreated control: 1.0

## NCCCC(=O)O [compound 33, γ-aminobutyric acid]
Wheat [5]
  Elongated plant height, ratio to untreated control: 1.0

## NCCC[C@H](N)C(=O)O [compound 34, ornithine]
Wheat [5]
  Elongated plant height, ratio to untreated control: 0.9

## C[N+](C)(C)CC(O)CC(=O)[O-] (stereo not shown) [compound 35, carnitine]
Wheat [5]
  Elongated plant height, ratio to untreated control: 0.9

## O=C(O)/C=C\C(=O)O [compound 36, maleic acid]
Wheat [5]
  Elongated plant height, ratio to untreated control: 0.9

## CSCC[C@H](N)C(=O)O [compound 38, L-methionine]
Wheat [6]
  Elongated plant height, ratio to untreated control: 0.8

## N[C@@H](Cc1c[nH]cn1)C(=O)O [compound 39, L-histidine]
Wheat [6]
  Elongated plant height, ratio to untreated control: 1.0

## N[C@@H](CS)C(=O)O [compound 40, L-cysteine]
Wheat [6]
  Elongated plant height, ratio to untreated control: 1.0

## NCC(=O)CCC(=O)O [compound 41, 5-aminolevulinic acid]
Wheat [6]
  Elongated plant height, ratio to untreated control: 0.9

## C=C1CC[C@H](O)C/C1=C/C=C1\CCC[C@]2(C)[C@@H]([C@H](C)/C=C/[C@H](C)C(C)C)CC[C@@H]12 [compound 42, vitamin D2]
Wheat [6]
  Elongated plant height, ratio to untreated control: 0.9

## O=c1cc[nH]c(=O)[nH]1 [compound 56, uracil]
Wheat [7]
  Elongated plant height, ratio to untreated control: 1.1

## O=c1cc[nH]c(=O)[nH]1 [compound 57, uracil]
Wheat [7]
  Elongated plant height, ratio to untreated control: 1.0

## O=c1cc[nH]c(=O)[nH]1 [compound 58, uracil]
Wheat [7]
  Elongated plant height, ratio to untreated control: 1.0
